Key:
Format in all cases: functional
MDA-MB-435 = experiment: Cytotoxicity against human MDA-MB-435 cells
OVCAR-3 = experiment: Cytotoxicity against human OVCAR-3 cells
DU-145 = experiment: Cytotoxicity against human DU145 cells
HCT-116 = experiment: Cytotoxicity against human HCT116 cells
UACC-62 = experiment: Cytotoxicity against human UACC62 cells
HOP-62 = experiment: Cytotoxicity against human HOP62 cells
SF-539 = experiment: Cytotoxicity against human SF539 cells
SN12C = experiment: Cytotoxicity against human SN12C cells

| SMILES | GI50 (MDA-MB-435) [µM] | GI50 (OVCAR-3) [µM] | GI50 (DU-145) [µM] | GI50 (HCT-116) [µM] | GI50 (UACC-62) [µM] | GI50 (HOP-62) [µM] | GI50 (SF-539) [µM] | GI50 (SN12C) [µM] |
| --- | --- | --- | --- | --- | --- | --- | --- | --- |
| COc1cc2c3c(n(CCCN=[N+]=[N-])c(=O)c2cc1OC)-c1ccc(N)cc1C3=O | 0.214 | 0.214 | 0.059 | 0.047 | 0.026 | 0.051 | 0.05 | 0.148 |
| COc1cc2c3c(n(CCCN=[N+]=[N-])c(=O)c2cc1OC)-c1ccccc1C3=O | 9.77 | 4.57 | 28.2 | 1.82 | 2.63 | 3.55 | 4.68 | 13.8 |
| COc1cc2c3c(n(CCCN=[N+]=[N-])c(=O)c2cc1OC)-c1ccc(F)cc1C3=O | 38 | 6.17 | 4.17 | 4.17 | 5.25 | 4.17 | 3.24 | 8.32 |
| COc1cc2c3c(n(CCCN=[N+]=[N-])c(=O)c2cc1OC)-c1ccc(C#N)cc1C3=O | > 100 | 17 | 33.9 | 24 | 12.3 | 14.1 | 17.4 | 15.5 |
| COc1cc2c3c(n(CCCN=[N+]=[N-])c(=O)c2cc1OC)-c1ccc([N+](=O)[O-])cc1C3=O | > 100 | > 100 | 34.7 | > 100 | 69.2 | 89.1 | 38.9 | > 100 |
| COc1cc2c3c(n(CCCN)c(=O)c2cc1OC)-c1ccc(N(C)C)cc1C3=O | 17.8 | 17.8 | 2.4 | 3.63 | 21.9 | 17 | 1.9 | 17 |
| COc1cc2c3c(n(CCCCl)c(=O)c2cc1OC)-c1ccccc1C3=O | > 100 | 10.7 | > 100 | 2.46 | 12.3 | 4.47 | 14.1 | > 100 |
| COc1cc2c3c(n(CCCCl)c(=O)c2cc1OC)-c1ccc(C#N)cc1C3=O | > 100 | 12.9 | 10.7 | 15.1 | 6.76 | 14.8 | 7.24 | 22.9 |
| [N-]=[N+]=NCCCn1c2c(c3ccc([N+](=O)[O-])cc3c1=O)C(=O)c1cc(Br)ccc1-2 | > 100 | > 100 | 14.8 | 3.02 | > 100 | 56.2 | > 100 | > 100 |
| [N-]=[N+]=NCCCn1c2c(c3ccc([N+](=O)[O-])cc3c1=O)C(=O)c1cc(I)ccc1-2 | 34.7 | 18.2 | 1.78 | 2.14 | 3.31 | 1.82 | 2.24 | 3.89 |
| N#Cc1ccc2c(c1)C(=O)c1c-2n(CCCN=[N+]=[N-])c(=O)c2cc([N+](=O)[O-])ccc12 | > 50.1 | > 50.1 | 7.08 | 3.89 | 3.63 | 15.1 | > 50.1 | 46.8 |
| COc1cc2c3c(n(CCCBr)c(=O)c2cc1OC)-c1ccc(NC(C)=O)cc1C3=O | 13.8 | 4.36 | 4.68 | 2.57 | 2.09 | 1.29 | 3.8 | 13.8 |
| CCc1ccc2c(c1)C(=O)c1c-2n(CCCN)c(=O)c2cc([N+](=O)[O-])ccc12 | 1.55 | 1.58 | 0.776 | 0.575 | 1.48 | 1.38 | 1.58 | 1.48 |
| NCCCn1c2c(c3ccc([N+](=O)[O-])cc3c1=O)C(=O)c1cc(-c3ccccc3)ccc1-2 | 0.468 | 1.82 | 0.2 | 0.178 | 1.51 | 0.186 | 1.62 | 0.437 |
| COc1ccc2c(c1)C(=O)c1c-2n(CCCCl)c(=O)c2cc(OC)c(OC)cc12 | 37.2 | 70.8 | 4.07 | 8.32 | 3.02 | 4.07 | 6.76 | 5.5 |
| NCCCn1c2c(c3ccc([N+](=O)[O-])cc3c1=O)C(=O)c1cc(I)ccc1-2 | 0.224 | 1.2 | < 0.01 | < 0.01 | < 0.01 | 0.021 | 0.044 | < 0.01 |
| NCCCn1c2c(c3ccc([N+](=O)[O-])cc3c1=O)C(=O)c1cc(F)ccc1-2 | 0.081 | 0.052 | < 0.01 | < 0.01 | < 0.01 | < 0.01 | 0.028 | 0.034 |
| CSc1ccc2c(c1)C(=O)c1c-2n(CCCN)c(=O)c2cc([N+](=O)[O-])ccc12 | 0.204 | 0.17 | < 0.01 | 0.023 | < 0.01 | < 0.01 | < 0.01 | 0.162 |

| SMILES | GI50 (MDA-MB-435) [µM] | GI50 (OVCAR-3) [µM] | GI50 (DU-145) [µM] | GI50 (HCT-116) [µM] | GI50 (UACC-62) [µM] | GI50 (HOP-62) [µM] | GI50 (SF-539) [µM] | GI50 (SN12C) [µM] |
| --- | --- | --- | --- | --- | --- | --- | --- | --- |
| COc1ccc2c(c1)C(=O)c1c-2n(CCCN)c(=O)c2cc(OC)c(OC)cc12 | 1.7 | 0.389 | < 0.01 | 0.054 | 0.427 | < 0.01 | 0.115 | 0.141 |
| COc1cc2c3c(n(CCCN)c(=O)c2cc1OC)-c1ccc(F)cc1C3=O | 6.03 | 6.31 | 0.575 | 1.38 | 3.39 | 0.603 | 1.12 | 4.36 |
| CCOc1ccc2c(c1)C(=O)c1c-2n(CCCN=[N+]=[N-])c(=O)c2cc([N+](=O)[O-])ccc12 | 39.8 | 20 | 3.89 | 1.82 | 2.88 | 3.02 | 3.89 | 5.25 |
| Cc1ccc2c(c1)C(=O)c1c-2n(CCCN=[N+]=[N-])c(=O)c2cc([N+](=O)[O-])ccc12 | > 100 | > 100 | > 100 | 20.4 | 30.2 | 72.4 | > 100 | 58.9 |
| CSc1ccc2c(c1)C(=O)c1c-2n(CCCN=[N+]=[N-])c(=O)c2cc([N+](=O)[O-])ccc12 | 6.03 | 3.89 | 1.15 | 0.776 | 0.708 | 0.603 | 0.891 | 1.05 |
| [N-]=[N+]=NCCCn1c2c(c3ccc([N+](=O)[O-])cc3c1=O)C(=O)c1cc(-c3ccccc3)ccc1-2 | > 100 | > 100 | > 100 | > 100 | > 100 | > 100 | > 100 | > 100 |
| COc1ccc2c(c1)C(=O)c1c-2n(CCCN=[N+]=[N-])c(=O)c2cc(OC)c(OC)cc12 | > 100 | 49 | 26.3 | 27.5 | 20.9 | 11.5 | 56.2 | 64.6 |
| COc1cc2c3c(n(CCCN)c(=O)c2cc1OC)-c1ccccc1C3=O | 0.631 | 0.085 | 2.63 | < 0.01 | 2.88 | 0.151 | 2.82 | 0.794 |
| COC(=O)c1ccc2c(c1)C(=O)c1c-2n(CCCN)c(=O)c2cc(OC)c(OC)cc12 | 18.2 | 16.6 | 17.8 | 16.6 | 17.4 | 3.72 | 15.8 | 15.1 |
| NCCCn1c2c(c3ccc([N+](=O)[O-])cc3c1=O)C(=O)c1cc(Br)ccc1-2 | 0.162 | 0.295 | < 0.01 | 0.048 | < 0.01 | 0.033 | 0.011 | < 0.01 |
| COC(=O)c1ccc2c(c1)C(=O)c1c-2n(CCCN=[N+]=[N-])c(=O)c2cc(OC)c(OC)cc12 | > 100 | > 100 | > 100 | > 100 | > 100 | > 100 | > 100 | > 100 |
| COc1cc2c3c(n(CCCN=[N+]=[N-])c(=O)c2cc1OC)-c1ccc(NC(C)=O)cc1C3=O | 50.1 | 50.1 | 50.1 | 50.1 | 50.1 | 50.1 | 50.1 | 50.1 |
| [N-]=[N+]=NCCCn1c2c(c3ccc([N+](=O)[O-])cc3c1=O)C(=O)c1cc(F)ccc1-2 | 2.88 | 3.47 | 0.437 | 0.309 | 0.38 | 0.251 | 0.457 | 0.302 |
| CCOc1ccc2c(c1)C(=O)c1c-2n(CCCN)c(=O)c2cc([N+](=O)[O-])ccc12 | 0.2 | 0.457 | 0.011 | 0.174 | 0.055 | 0.012 | 0.035 | 0.055 |
| COc1cc2c3c(n(CCCBr)c(=O)c2cc1OC)-c1ccc(F)cc1C3=O | 43.7 | 24.5 | 4.36 | 5.75 | 3.89 | 4.17 | 3.55 | 15.5 |
| CCc1ccc2c(c1)C(=O)c1c-2n(CCCN=[N+]=[N-])c(=O)c2cc([N+](=O)[O-])ccc12 | > 50.1 | > 50.1 | > 50.1 | > 50.1 | > 50.1 | > 50.1 | > 50.1 | > 50.1 |
| COC(=O)c1ccc2c(c1)C(=O)c1c-2n(CCCN=[N+]=[N-])c(=O)c2cc([N+](=O)[O-])ccc12 | > 100 | > 100 | 70.8 | 47.9 | 37.1 | 25.7 | 53.7 | > 100 |
